According to patent US8697649B2, “Polypeptides, nucleic acid molecule encoding polypeptides, and uses of polypeptides” (China Medical University, priority 2012, dated 2014):
Entries after “also recorded” stand apart in the source; their conditions may differ. Like-named read-outs stand apart in the source and are kept apart here. Where no end group is shown, it is not given here.

Columns and labels:
[1] = molecular target: T1, insulin receptor (Homo sapiens, UniProt P06213); test: Whole cell receptor binding assay with 125I-labeled insulin (IM-9 cells)
T1 construct: endogenous in cells; host or cells: IM-9 human lymphocyte cell line
Procedure: After incubation, the cells were chilled, centrifuged at 2000 rpm for 10 min at 4° C., and the pellets were washed twice with an ice-cold wash buffer (10 mmol/L Tris and 150 mmol/L NaCl, pH 7.6). The pellet was counted by a gamma counter. The assays were performed at least three times for each polypeptide. […] The lower value of EC50 represents a stronger effect on promoting the binding.

[2] = test system: diabetic mice (STZ-induced); test: Glycated hemoglobin value assay; format: in vivo; details: 1×10^−6 mole/kg oral, after 28 days
Procedure: Glycated hemoglobin value (HbAlc) is the concentration of glucose attached on red blood cells in the blood of an organism. In general, a higher concentration of blood sugar reflects a higher glycated hemoglobin value, while the glycated hemoglobin value is a standard for evaluating the effect of a medicament on treating diabetes. Therefore, in this example, the effect of the polypeptide on controlling the blood sugar values of the mice were evaluated by measuring the glycated hemoglobin value.
In the experimental group, the polypeptides (1×10^−6 mole/kg body weight, 20 μl) were orally administrated to each mouse in the experimental group. In the control group, each mouse was administrated by 20 μl water. The glycated hemoglobin value was measured after 28 days.

[3] = test system: diabetic mice; test: Measurement of renal index; format: in vivo; details: oral, after 28 days, blood
Procedure: After 28 days, the kidney indexes (BUN and CRE) in the blood of these mice were measured to evaluate the effects of these polypeptides on the renal disorders caused by diabetes.

[4] = test system: diabetic mice; test: Measurement of liver index; format: in vivo; details: oral, after 28 days
Procedure: The polypeptide of IRBP-50-68 (SEQ ID NO:6) was orally administrated to the diabetic mice in the experimental group by the same method as described in Example 14. After 28 days, the liver indexes (GOT and GPT) of these mice were measured to evaluate the effect of the polypeptide on the hepato disorders caused by diabetes in diabetic mice.

[5] = molecular target: insulin receptor tyrosine kinase (Homo sapiens, UniProt P06213); test: Receptor binding assay by insulin receptor tyrosine kinase activity; format: biochemical; details: poly(Glu,Tyr) substrate, [γ-32P]ATP
Procedure: The sample was placed in an ice bath for 10 minutes. Then, TCA was added thereinto to precipitate the substrate (poly(Glu,Tyr)) on a filter paper.

[6] = test system: mice (BALB/c, STZ-induced, ob/ob); test: Blood sugar reducing assay; format: in vivo; details: 2.5×10^−9 mole/kg intraperitoneal, 150 minutes
Procedure: IRBP-1-68 (SEQ ID NO:1), the polypeptides having the segmental amino acid sequences of IRBP, and the polypeptides derived from the substitution of multiple amino acids in the segmental amino acid sequences were analyzed by a blood sugar reducing assay. […] The polypeptides (100 μl, 2.5×10^−9 mole/kg body weight) as shown in Table 11 were administrated to each mouse in an experimental group by intraperitoneal injection. Each mouse in the control group was administrated with 100 μl water. […] After 150 minutes, blood samples were collected from the mouse tails, while the blood sugar value was measured by a glucometer (ACCU-CHEK Advantage, Roche, Germany). The blood sugar values of the mice in the experimental group and control group were compared and analyzed.

[7] = molecular target: T1, insulin receptor; test: Insulin receptor autophosphorylation assay in IM-9 cells; format: cell-based; details: stimulated 15 min at 37° C., immunoblotting, FIG. 2
Procedure: The assay was conducted by the following steps: The human lymphocyte cell line (IM-9) was serum-starved (RPMI medium supplemented with 0.1% BSA) for 16 h and then stimulated with IRBP-1-68 (SEQ ID NO:1) for 15 min at 37° C., and washed with cold PBS. The cells were lysed to obtain about […] of total proteins, while the immunoprecipitation was conducted by the anti-insulin receptor polyclonal antibody (C-19). Then, the protein was adsorbed onto protein G-agarose beads (Gibco-BRL, Gaithersburg, Md.) for 2 h at 4° C., resolved by SDS-PAGE, and transferred to an Immobilon-P membrane by electroblotting. The membrane was incubated with antiphosphotyrosine antibody (4G10) overnight at 4° C. to conduct the immunoblotting analysis. In FIG. 2, the broader band of the immunoblotting analysis represents a higher protein expression level.

[8] = test system: 3T3-L1 adipocytes; test: Glucose uptake assay; format: cell-based; details: 1 nM insulin plus IRBP-1-68, 30 min, [3H]-2-deoxy-D-glucose 10 min
Text: A key step for modulating blood sugar is that adipose tissue can uptake glucose from the blood and thereby, reduce blood sugar. Accordingly, this example further used 3T3-L1 adipocytes as an assay platform to conduct the glucose uptake assay. […] The cells were washed three times with ice-cold phosphate buffered saline (PBS) and then solubilized in 0.1% SDS.

[9] = test system: 3T3-L1 adipocytes; test: Microarray analysis; format: cell-based; details: expression increased or decreased up to 2 folds
Procedure: Total RNAs were extracted from 3T3-L1 adipocytes which were or were not treated with IRBP-1-68 (SEQ ID NO:1) using RNeasy Mini kit (Qiagen, Valencia, Calif., USA). Total RNA was evaluated using Agilent 2100 bioanalyzer (Agilent Technologies, Santa Clara, Calif., USA). The RNA sample with an RNA integrity number greater than 8.0 was selected. Microarray analysis was performed as described previously (see Cheng, W. Y. et al., 2009, Comprehensive evaluation of a novel nuclear factor-κB inhibitor, quinoclamine, by transcriptomic analysis. Brit. J. Pharmacol. 157(5): 746-756; Cheng, H. M. et al., 2010, Application of bioactivity database of Chinese herbal medicine on the therapeutic prediction, drug development, and safety evaluation. J. Ethnopharmacol. 132 (2): 429-437; and Hsiang, C. Y. et al., 2009, Nuclear factor-κB bioluminescence imaging-guided transcriptomic analysis for the assessment of hoist-biomaterial interaction in vivo. Biomaterials 30 (17): 3042-3049, which are entirely incorporated hereinto by reference).

[10] = test system: 3T3-L1 adipocytes; test: Western blotting analysis of insulin signal pathway-related proteins; format: cell-based; details: 3T3-L1 adipocytes treated 16 hours, FIG. 3
Procedure: 3T3-L1 adipocytes were cultured at 37° C. for 24 hours, treated with IRBP-1-68 (SEQ ID NO:1) for 16 hours, collected using a cell scraper after being washed with ice-cold PBS, and lysed with a 300 μl sample buffer (62.5 mM Tris-HCl, pH 6.8, 2% sodium dodecyl sulfate, 10% glycerol, 50 mM dithiothreitol, 0.1% bromophenol blue). The protein concentration of the cell lysate was determined with a Bradford method (Bio-Rad, Hercules, Calif., USA). The proteins (10 μg) were separated by SDS-PAGE and the protein bands were then transferred electrophoretically to nitrocellulose membranes (Amersham Pharmacia Biotech Inc., Piscataway, N.J., USA). Membranes were blocked in blocking buffer (20 mM Tris-HCl, pH 7.6, 140 mM NaCl, 0.1% Tween-20, 5% skim milk powder) and probed with anti-Akt, anti-phospho-Akt (Ser473), anti-phospho-Akt (Thr308), anti-phospho-PTEN (phosphatase and tensin homolog deleted on Chromosome ten) (Ser380), anti-phospho-GSK-3β (glycogensynthasekinase-3β) (Ser9), anti-phospho-Raf (Ser259), anti-phospho-PDK1 (phosphoinositide-dependent kinase 1) (Ser241) antibodies (Cell Signaling Technology, Beverly, Mass., USA). The result was shown in FIG. 3, wherein the values shown in FIG. 3 represent the intensity of the bands in western blotting analysis. A higher value represents a higher expression level of the target protein.

[11] = test system: 3T3-L1 adipocytes; test: Immunochemical analysis of GLUT4; format: cell-based; details: FIG. 4
Procedure: Immunochemical analysis was conducted by the following method: 3T3-L1 adipocytes were cultured and fixed on a cover slide, and incubated with a 1:50 diluted mouse monoclonal antibody against GLUT4 (Millipore, Billerica, Mass., USA) at 4° C. overnight. Then, the cells were incubated with biotinylated secondary antibody (Zymed Laboratories, South San Francisco, Calif., USA) at room temperature for 20 min. Then, the slides were incubated with avidin-biotin complex reagent and stained with 3,3′-diaminobenzidine (HISTOSTAIN®-Plus Kit, Zymed Laboratories, South San Francisco, Calif., USA).

[12] = STZ-induced mice, glucose 1 g/kg

DFRCDRVRVWVTERGIVARPPTIG [IRBP-45-68]
EC50 ([1]; IM-9 cells, 16° C., 90 min): > 25 nM

GAAAKAVIERENPRVRVI [IRBP-17-35]
EC50 [1]: > 25 nM

IVARPPAIG [IRBP-MC]
EC50 ([1]; IM-9 cells, 16° C., 90 min): 0.86 ± 0.05 nM

IVARPPTIG [IRBP-60-68]
EC50 [1]: 0.77 ± 0.04 nM | glycated hemoglobin value [2]: 5.73 ± 0.11 % | BUN [3]: 73.17 ± 29.95 | CRE [3]: 0.17 ± 0.04

IVYQVPTIG [IRBP-MT]
EC50 ([1]; IM-9 cells, 16° C., 90 min): 0.77 ± 0.02 nM

RVRVWVTERGIVARPPTIG [IRBP-50-68]
glycated hemoglobin value [2]: 5.93 ± 0.55 % | GOT [4]: 247.89 ± 97.38 | GPT [4]: 135.72 ± 30.72 | BUN [3]: 107.25 ± 42.99 | CRE [3]: 0.191 ± 0.12

RYKYQCFYI (optimal docking polypeptide of insulin receptor) [IRBP-9B]
activity of insulin receptor tyrosine kinase [5]: 79.76±5.64 U/ml | blood sugar inhibition ratio ([6]; BALB/c mice, glucose 4 g/kg): 61.0 ± 2.5 %

RYKYQCWYI (optimal docking polypeptide of insulin receptor) [IRBP-9D]
activity of insulin receptor tyrosine kinase [5]: 65.95 ± 1.74 U/ml

RYKYQWFYI (optimal docking polypeptide of insulin receptor) [IRBP-9A]
activity of insulin receptor tyrosine kinase [5]: 40.34 ± 1.94 U/ml | blood sugar inhibition ratio [6, 12]: 34.2 ± 13.6%

RYKYQWWYI (optimal docking polypeptide of insulin receptor) [IRBP-9C]
activity of insulin receptor tyrosine kinase [5]: 44.18 ± 3.61 U/ml | blood sugar inhibition ratio [6, 12]: 22.6 ± 9.0%

SRCQGKSSWPQLVGSTGAAAKAVIERENPRVRAVIIKVGSGATKDFRCDRVRVWVTERGIVARPPTIG [IRBP-1-68]
insulin receptor autophosphorylation (ratio of phosphorylated insulin receptor to insulin receptor) [7]: increased along with the increment of IRBP-1-68 (SEQ ID NO:1) concentration; also recorded: can induce insulin receptor autophosphorylation | Ratio (radioactivity, glucose uptake) [8]: 1.79 ± 0.49 | number of the genes with changed expression level (total gene number of the pathway) ([9]; adipocytokine signal pathway): 16 (71) | number of the genes with changed expression level (total gene number of the pathway) ([9]; insulin signal pathway): 28 (136) | protein expression levels of insulin signal pathway-related genes (PDK-1, phosphorylated-AKt Thr 308, phosphorylated-AKt Ser 473, GLUT4) [10]: can increase the protein expression levels | GLUT4 expression by immunochemical staining [11]: can promote 3T3-L1 adipocytes to express GLUT4 | blood sugar inhibition ratio ([6]; BALB/c mice, glucose 4 g/kg): 68.9 ± 0.9 % | blood sugar inhibition ratio [6, 12]: 37.3 ± 3.8% | blood sugar inhibition ratio ([6]; ob/ob mice, glucose 1 g/kg): 55.6 ± 12.9 %

VIIKVGSGATKDFRCDRVR [IRBP-34-52]
EC50 ([1]; IM-9 cells, 16° C., 90 min): > 25 nM
